Structures can show the parent of a compound that is named as a salt.
target: T1, S1P1 (Homo sapiens, UniProt P21453); experiment: 35S-GTPγS binding, S1P1 membranes; type: biochemical; conditions: membranes from CHO cells expressing S1P1; 60 min 30° C.
T1 construct: expressed in transfected cells; host or cells: CHO cells (membranes)
Experimental: Receptor binding assay: Membranes were prepared from CHO cells expressing S1P1 or S1P3 for use in ligand and […] binding studies. Cells were suspended in 50 mM TRIS, pH 7.4, 2 mM EDTA, 250 mM Sucrose (buffer A) and 1× Complete protease inhibitor cocktail (Roche), and disrupted at 4° C. by N2 decompression using a cell disruption bomb (Parr Instrument). Following centrifugation at 1000 RPM for 10 min at 4° C., the supernatant was suspended in buffer A and centrifuged again at 19000 RPM for 60 min at 4° C. The pellet was then suspended in 10 mM HEPES, pH 7.4, 1 mM EDTA, 250 mM Sucrose (Buffer B), and 1× Complete EDTA-free protease inhibitor cocktail and homogenized using a potter. Membranes were flash frozen in liquid N2 and stored at −80° C. [33P]sphingosine 1-phosphate (3000 Ci/mmol; American Radiolabeled Chemicals, Inc.) was added to test compounds in DMSO. Membranes and WGA SPA beads (GE Healthcare) were added to give a final volume of 100 μl in 96-well plates with assay concentrations of 25 pM or 10 pM [33P]sphingosine 1-phosphate (respectively for S1P1 or S1P3), 50 mM HEPES, pH 7.5, 5 mM MgCl2, 100 mM NaCl, 0.4% fatty acid-free BSA, 1-5 μg/well of proteins and 100 μg/well of WGA SPA beads. Binding was performed for 60 min at RT on a shaker and bound radioactivity was measured on a PerkinElmer 1450 MicroBeta counter. Specific binding was calculated by subtracting remaining radioactivity in the presence of 1000-fold excess of unlabeled S1P. Binding data were analyzed using the GraphPad Prism program.
Measurements of ^35S-GTPγS Binding: Membranes (1 to 10 μg protein) prepared as described above, were incubated in 96-well Scintiplates (PerkinElmer) with test compounds diluted in DMSO, in 180 μl of 20 mM HEPES, pH 7.4, 10 mM MgCl2, 2 μg/well Saponin, 0.2% fatty acid free BSA (Assay buffer), 140 mM NaCl and 1.7 μM GDP. The assay was initiated with the addition of 20 μl of 1.5 nM [35S]-GTPγS (1100 Ci/mmol; GE Healthcare) in assay buffer. After 60 min incubation at 30° C. on a shaker, plates were centrifuged for 10 min at 2000 RPM. Supernatant was discarded and membrane bound radioactivity was measured on a PerkinElmer 1450 MicroBeta counter. Triplicate samples were averaged and expressed as % response relative to S1P activation in absence of compound (n=2).

T1 sequence (P21453 whole entry, species assumed): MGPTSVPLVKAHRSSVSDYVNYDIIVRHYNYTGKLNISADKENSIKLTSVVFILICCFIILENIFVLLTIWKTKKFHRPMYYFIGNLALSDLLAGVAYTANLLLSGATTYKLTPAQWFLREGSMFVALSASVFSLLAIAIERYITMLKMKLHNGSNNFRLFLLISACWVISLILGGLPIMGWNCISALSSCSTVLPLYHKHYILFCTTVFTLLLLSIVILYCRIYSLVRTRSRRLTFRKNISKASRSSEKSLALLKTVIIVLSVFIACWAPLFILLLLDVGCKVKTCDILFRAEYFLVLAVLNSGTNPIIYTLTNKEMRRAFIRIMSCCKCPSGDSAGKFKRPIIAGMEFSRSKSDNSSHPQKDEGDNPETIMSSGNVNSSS

| Structure (SMILES) | EC50 |
| --- | --- |
| CCOC(=O)CCCOc1ccc(-c2noc(-c3ccc(N4CCCCC4C)c(COC)c3)n2)cc1F (stereo not drawn) [Example 163, ethyl 4-(2-fluoro-4-{5-[3-(methoxymethyl)-4-(2-methylpiperidin-1-yl)phenyl]-1,2,4-oxadiazol-3-yl}phenoxy)butanoate] | 5.5 nM |
| O=C(O)c1ccc(-c2noc(-c3ccc([N+](=O)[O-])c(N4CCCCC4)c3)n2)cc1F [Example 21, 2-fluoro-4-[5-(4-nitro-3-piperidin-1-ylphenyl)-1,2,4-oxadiazol-3-yl]benzoic acid] | 9740 nM |
| COCC#Cc1cc(-c2nc(-c3ccc(C(=O)O)c(F)c3)no2)ccc1-c1ccccc1C [Example 96, 2-fluoro-4-{5-[2-(3-methoxyprop-1-yn-1-yl)-2′-methylbiphenyl-4-yl]-1,2,4-oxadiazol-3-yl}benzoic acid] | 462 nM |
| COCc1cc(-c2nc(-c3ccc(F)c(CN(C)CCC(=O)O)c3)no2)ccc1OC(C)C [Example 157, N-(2-fluoro-5-{5-[4-isopropoxy-3-(methoxymethyl)phenyl]-1,2,4-oxadiazol-3-yl}benzyl)-N-methyl-beta-alanine, Hydrochloride salt] | 4 nM |
| CC1CCCCN1c1ccc(-c2nc(-c3ccc(S(N)(=O)=O)cc3)no2)cc1C(F)(F)F (stereo not drawn) [Example 38, 4-{5-[4-(2-methylpiperidin-1-yl)-3-(trifluoromethyl)phenyl]-1,2,4-oxadiazol-3-yl}benzenesulfonamide] | 1.5 nM |
| Cc1cc(-c2nc(-c3ccc(C(=O)O)c(F)c3)no2)ccc1-c1c(C)noc1C [Example 25, 4-{5-[4-(3,5-dimethylisoxazol-4-yl)-3-methylphenyl]-1,2,4-oxadiazol-3-yl}-2-fluorobenzoic acid] | 14200 nM |
| COCC1CCCN1c1ncc(-c2nc(-c3ccc(S(N)(=O)=O)cc3)no2)cc1C (stereo not drawn) [Example 41, 4-(5-{6-[2-(methoxymethyl)pyrrolidin-1-yl]-5-methylpyridin-3-yl}-1,2,4-oxadiazol-3-yl)benzenesulfonamide] | 1090 nM |
| CC1CCCCN1c1ccc(-c2nc(-c3ccc(F)c(C(=O)O)c3)no2)cc1C(F)(F)F (stereo not drawn) [Example 33, 2-fluoro-5-{5-[4-(2-methylpiperidin-1-yl)-3-(trifluoromethyl)phenyl]-1,2,4-oxadiazol-3-yl}benzoic acid] | 180 nM |
| CC(C)COc1ncc(-c2nc(-c3ccc(OCC(=O)O)c(F)c3)no2)cc1Cl [Example 49, {4-[5-(5-chloro-6-isobutoxypyridin-3-yl)-1,2,4-oxadiazol-3-yl]-2-fluorophenoxy}acetic acid] | 1280 nM |
| CC(C)COc1ccc(-c2nc(-c3ccc(C(=O)O)c(F)c3)no2)cc1NS(C)(=O)=O [Example 64, 2-fluoro-4-(5-{4-isobutoxy-3-[(methylsulfonyl)amino]phenyl}-1,2,4-oxadiazol-3-yl)benzoic acid] | 4720 nM |
| COc1ccc(-c2ccc(-c3nc(-c4ccc(C(=O)O)c(F)c4)no3)cc2C)c(OC)c1 [Example 20, 4-[3-(2′,4′-dimethoxy-2-methylbiphenyl-4-yl)-1,2,4-oxadiazol-3-yl]-2-fluorobenzoic acid] | 10900 nM |
| Cc1cc(-c2nc(-c3ccc(C(=O)O)c(F)c3)no2)ccc1-c1ccccc1O [Example 32, 2-fluoro-4-[5-(2′-hydroxy-2-methylbiphenyl-4-yl)-1,2,4-oxadiazol-3-yl]benzoic acid] | 2920 nM |
| COC(=O)c1ccc(-c2noc(-c3ccc(N(C)C)c(NS(C)(=O)=O)c3)n2)cc1F [Example 71, methyl 4-(5-{4-(dimethylamino)-3-[(methylsulfonyl)amino]phenyl}-1,2,4-oxadiazol-3-yl)-2-fluorobenzoate] | 481 nM |

Now from value to compound:

| EC50 | Structure (SMILES) |
| --- | --- |
| 274 nM | CCc1ccccc1-c1ccc(-c2nc(-c3ccc(C(=O)OC)c(F)c3)no2)cc1COC [Example 80, methyl 4-{5-[2′-ethyl-2-(methoxymethyl)biphenyl-4-yl]-1,2,4-oxadiazol-3-yl}-2-fluorobenzoate] |
| 35 nM | CCOC(=O)C1(NC(=O)c2cccc(-c3noc(-c4ccc(-c5ccccc5C)c(COC)c4)n3)c2)CC1 [Example 131, Ethyl 1-[(3-{5-[2-(methoxymethyl)-2′-methylbiphenyl-4-yl]-1,2,4-oxadiazol-3-yl}benzoyl)amino]cyclopropanecarboxylate] |
| 90 nM | COCc1cc(-c2nc(-c3cc(Cl)c(C(=O)O)cc3F)no2)ccc1-c1ccccc1C [Example 109, 2-chloro-5-fluoro-4-{5-[2-(methoxymethyl)-2′-methylbiphenyl-4-yl]-1,2,4-oxadiazol-3-yl}benzoic acid] |
| 513 nM | COCc1cc(-c2nc(-c3ccc(C(=O)O)c(F)c3)no2)ccc1-c1ccc(F)cc1C [Example 94, 2-fluoro-4-{5-[4′-fluoro-2-(methoxymethyl)-2′-methylbiphenyl-4-yl]-1,2,4-oxadiazol-3-yl}benzoic acid] |
| 128 nM | COCc1cc(-c2nc(-c3ccc(C(=O)N4CC(F)(F)C4)c(F)c3)no2)ccc1-c1ccccc1C [Example 175, 3-{4-[(3,3-difluoroazetidin-1-yl)carbonyl]-3-fluorophenyl}-5-[2-(methoxymethyl)-2′-methylbiphenyl-4-yl]-1,2,4-oxadiazole] |
| 5.1 nM | COCc1cc(-c2nc(-c3cccc(C(=O)NCC(=O)O)c3)no2)ccc1-c1ccccc1C [Example 134, N-(3-{5-[2-(methoxymethyl)-2′-methylbiphenyl-4-yl]-1,2,4-oxadiazol-3-yl}benzoyl)glycine] |
| 10 nM | Cc1ccccc1-c1ccc(-c2nc(-c3ccc(S(N)(=O)=O)cc3)no2)cc1C [Example 40, 4-[5-(2,2′-dimethylbiphenyl-4-yl)-1,2,4-oxadiazol-3-yl]benzenesulfonamide] |
| 50 nM | COCc1cc(-c2nc(-c3cc(C(=O)OC)ccc3OC)no2)ccc1-c1ccccc1C [Example 106, methyl 4-methoxy-3-{5-[2-(methoxymethyl)-2′-methylbiphenyl-4-yl]-1,2,4-oxadiazol-3-yl}benzoate] |
| 2.1 nM | COCc1cc(-c2nc(-c3cccc(CCOCC(=O)O)c3)no2)ccc1-c1ccccc1C [Example 161, [2-(3-{5-[2-(methoxymethyl)-2′-methylbiphenyl-4-yl]-1,2,4-oxadiazol-3-yl}phenyl)ethoxy]acetic acid] |
| 538 nM | COCCCc1cc(-c2nc(-c3ccc(C(=O)O)c(F)c3)no2)ccc1-c1ccccc1C [Example 100, 2-fluoro-4-{5-[2-(3-methoxypropyl)-2′-methylbiphenyl-4-yl]-1,2,4-oxadiazol-3-yl}benzoic acid] |
| 46 nM | COCc1cc(-c2nc(-c3cccc(C(=O)N(C)CC(=O)OC)c3)no2)ccc1-c1ccccc1C [Example 136, Methyl N-(3-{5-[2-(methoxymethyl)-2′-methylbiphenyl-4-yl]-1,2,4-oxadiazol-3-yl}benzoyl)-N-methylglycinate] |
| 1690 nM | Cc1ccccc1-c1ccc(-c2nc(-c3ccc(C(=O)O)cc3)no2)cc1C [Example 42, 4-[5-(2,2′-dimethylbiphenyl-4-yl)-1,2,4-oxadiazol-3-yl]benzoic acid] |
| 16 nM | COCCNC(=O)c1cccc(-c2noc(-c3ccc(-c4ccccc4C)c(COC)c3)n2)c1 [Example 181, N-(2-methoxyethyl)-3-{5-[2-(methoxymethyl)-2′-methylbiphenyl-4-yl]-1,2,4-oxadiazol-3-yl}benzamide] |
| 25 nM | COCc1cc(-c2nc(-c3cccc(C(=O)NCCCC(=O)OC)c3)no2)ccc1-c1ccccc1C [Example 137, Methyl 4-[(3-{5-[2-(methoxymethyl)-2′-methylbiphenyl-4-yl]-1,2,4-oxadiazol-3-yl}benzoyl)amino]butanoate] |
| 67 nM | COCc1cc(-c2nc(-c3ccc(C(=O)O)c(F)c3)no2)ccc1-c1ccccc1Cl [Example 98, 4-{5-[2′-chloro-2-(methoxymethyl)biphenyl-4-yl]-1,2,4-oxadiazol-3-yl}-2-fluorobenzoic acid] |
| 5 nM | CCc1ccccc1-c1ccc(-c2nc(-c3ccc(OCCCC(=O)O)c(F)c3)no2)cc1COC [Example 162, 4-(4-{5-[2′-ethyl-2-(methoxymethyl)biphenyl-4-yl]-1,2,4-oxadiazol-3-yl}-2-fluorophenoxy)butanoic acid] |
| 154 nM | COCc1cc(-c2nc(-c3ccc(C(=O)NC(C)(C)C(=O)OC)c(F)c3)no2)ccc1-c1ccccc1C [Example 128, Methyl N-(2-fluoro-4-{5-[2-(methoxymethyl)-2′-methylbiphenyl-4-yl]-1,2,4-oxadiazol-3-yl}benzoyl)-2-methylalaninate] |
